Experimental data from US20260007681A1, “INDOLE DERIVATIVES AS ESTROGEN RECEPTOR DEGRADERS” (REGENTS OF THE UNIVERSITY OF MICHIGAN, priority 2022, published 2026).

Biological target: ER (Homo sapiens (Human), UniProt P03372)
Assay: Western blot analysis (Compounds B1-B278)
Type: cell-based
Conditions: ER degradation by traditional Western blot; DC50 classes
Summary of the method: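 Relative target-protein levels come from densitometry of immunoblots, normalized to GAPDH. Lysates from treated cells were prepared in RIPA buffer (pH 7.6) containing protease inhibitors, and equal protein amounts, checked by BCA, were separated on 10% gels and blotted onto PVDF.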

Chain of ER (P03372 whole entry): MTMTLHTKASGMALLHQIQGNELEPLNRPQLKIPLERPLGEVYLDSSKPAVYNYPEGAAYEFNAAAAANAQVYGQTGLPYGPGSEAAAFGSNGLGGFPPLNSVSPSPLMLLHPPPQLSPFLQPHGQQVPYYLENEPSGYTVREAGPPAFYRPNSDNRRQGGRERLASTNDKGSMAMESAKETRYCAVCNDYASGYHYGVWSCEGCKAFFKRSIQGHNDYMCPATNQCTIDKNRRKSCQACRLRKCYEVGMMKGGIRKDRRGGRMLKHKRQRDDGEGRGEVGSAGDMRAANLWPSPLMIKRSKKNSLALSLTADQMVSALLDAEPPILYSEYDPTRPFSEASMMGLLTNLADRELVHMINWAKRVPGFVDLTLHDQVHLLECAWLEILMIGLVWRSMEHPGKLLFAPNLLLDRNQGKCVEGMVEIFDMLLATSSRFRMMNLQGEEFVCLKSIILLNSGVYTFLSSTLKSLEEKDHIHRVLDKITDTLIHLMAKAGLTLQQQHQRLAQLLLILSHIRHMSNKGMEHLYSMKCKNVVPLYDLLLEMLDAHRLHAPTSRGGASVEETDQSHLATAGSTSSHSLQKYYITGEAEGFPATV

Row | SMILES | Traditional Western Degradation Potency
1 | C[C@@H]1Cc2c([nH]c3ccccc23)[C@@H](c2c(F)cc(C3CCC(CN4CC(CN5Cc6cc7c(cc6C5)C(=O)N(C5CCC(=O)NC5=O)C7=O)C4)CC3)cc2F)N1CC(F)F (stereo partly drawn) [Compound B83, 6-((1-((4-(4-((1R,3R)-2-(2,2-difluoroethyl)-3-methyl-2,3,4,9-tetrahydro-1H-pyrido[3,4-b]indol-1-yl)-3,5-difluorophenyl)cyclohexyl)methyl)azetidin-3-yl)methyl)-2-(2,6-dioxopiperidin-3-yl)-6,7-dihydropyrrolo[3,4-f]isoindole-1,3(2H,5H)-dione] | C (“C”: >100 nM)
2 | C[C@@H]1Cc2c([nH]c3ccccc23)[C@@H](c2c(F)cc(C3CCC(C(=O)N4CCC(N5Cc6cc7c(cc6C5)C(=O)N(C5CCC(=O)NC5=O)C7)CC4)CC3)cc2F)N1CC(F)F (stereo partly drawn) [Compound B84, 3-(6-(1-(4-(4-((1R,3R)-2-(2,2-difluoroethyl)-3-methyl-2,3,4,9-tetrahydro-1H-pyrido[3,4-b]indol-1-yl)-3,5-difluorophenyl)cyclohexane-1-carbonyl)piperidin-4-yl)-1-oxo-3,5,6,7-tetrahydropyrrolo[3,4-f]isoindol-2(1H)-yl)piperidine-2,6-dione] | A (“A”: <10 nM)
3 | C[C@@H]1Cc2c([nH]c3ccccc23)[C@@H](c2c(F)cc(C3CCC(CN4CCC(N5Cc6cc7c(cc6C5)C(=O)N(C5CCC(=O)NC5=O)C7)CC4)CC3)cc2F)N1CC(F)F (stereo partly drawn) [Compound B85, 3-(6-(1-((4-(4-((1R,3R)-2-(2,2-difluoroethyl)-3-methyl-2,3,4,9-tetrahydro-1H-pyrido[3,4-b]indol-1-yl)-3,5-difluorophenyl)cyclohexyl)methyl)piperidin-4-yl)-1-oxo-3,5,6,7-tetrahydropyrrolo[3,4-f]isoindol-2(1H)-yl)piperidine-2,6-dione] | B (“B”: 10-100 nM)
4 | C[C@@H]1Cc2c([nH]c3ccccc23)[C@@H](c2c(F)cc(-c3cnc(C(=O)N4CCC(N5Cc6cc7c(cc6C5)C(=O)N(C5CCC(=O)NC5=O)C7=O)CC4)nc3)cc2F)N1CC(F)F (stereo partly drawn) [Compound B86, 6-(1-(5-(4-((1R,3R)-2-(2,2-difluoroethyl)-3-methyl-2,3,4,9-tetrahydro-1H-pyrido[3,4-b]indol-1-yl)-3,5-difluorophenyl)pyrimidine-2-carbonyl)piperidin-4-yl)-2-(2,6-dioxopiperidin-3-yl)-6,7-dihydropyrrolo[3,4-f]isoindole-1,3(2H,5H)-dione] | B (“B”: 10-100 nM)
5 | C[C@@H]1Cc2c([nH]c3ccccc23)[C@@H](c2c(F)cc(-c3ccc(C(=O)N4CCC(N5Cc6cc7c(cc6C5)C(=O)N(C5CCC(=O)NC5=O)C7=O)CC4)nc3)cc2F)N1CC(F)F (stereo partly drawn) [Compound B87, 6-(1-(5-(4-((1R,3R)-2-(2,2-difluoroethyl)-3-methyl-2,3,4,9-tetrahydro-1H-pyrido[3,4-b]indol-1-yl)-3,5-difluorophenyl)picolinoyl)piperidin-4-yl)-2-(2,6-dioxopiperidin-3-yl)-6,7-dihydropyrrolo[3,4-f]isoindole-1,3(2H,5H)-dione] | B (“B”: 10-100 nM)
6 | C[C@@H]1Cc2c([nH]c3ccccc23)[C@@H](c2c(F)cc(-c3ccc(CN4CCC(N5Cc6cc7c(cc6C5)C(=O)N(C5CCC(=O)NC5=O)C7=O)CC4)nc3)cc2F)N1CC(F)F (stereo partly drawn) [Compound B88, 6-(1-((5-(4-((1R,3R)-2-(2,2-difluoroethyl)-3-methyl-2,3,4,9-tetrahydro-1H-pyrido[3,4-b]indol-1-yl)-3,5-difluorophenyl)pyridin-2-yl)methyl)piperidin-4-yl)-2-(2,6-dioxopiperidin-3-yl)-6,7-dihydropyrrolo[3,4-f]isoindole-1,3(2H,5H)-dione] | C (“C”: >100 nM)
7 | C[C@@H]1Cc2c([nH]c3ccccc23)[C@@H](c2c(F)cc(-c3ccc(C(=O)N4CCC(N5Cc6cc7c(cc6C5)C(=O)N(C5CCC(=O)NC5=O)C7=O)CC4)cn3)cc2F)N1CC(F)F (stereo partly drawn) [Compound B89, 6-(1-(6-(4-((1R,3R)-2-(2,2-difluoroethyl)-3-methyl-2,3,4,9-tetrahydro-1H-pyrido[3,4-b]indol-1-yl)-3,5-difluorophenyl)nicotinoyl)piperidin-4-yl)-2-(2,6-dioxopiperidin-3-yl)-6,7-dihydropyrrolo[3,4-f]isoindole-1,3(2H,5H)-dione] | A (“A”: <10 nM)
8 | C[C@@H]1Cc2c([nH]c3ccccc23)[C@@H](c2c(F)cc(-c3ccc(C(=O)N4CCC(N5Cc6cc7c(cc6C5)C(=O)N(C5CCC(=O)NC5=O)C7=O)CC4)nn3)cc2F)N1CC(F)F (stereo partly drawn) [Compound B91, 6-(1-(6-(4-((1R,3R)-2-(2,2-difluoroethyl)-3-methyl-2,3,4,9-tetrahydro-1H-pyrido[3,4-b]indol-1-yl)-3,5-difluorophenyl)pyridazine-3-carbonyl)piperidin-4-yl)-2-(2,6-dioxopiperidin-3-yl)-6,7-dihydropyrrolo[3,4-f]isoindole-1,3(2H,5H)-dione] | B (“B”: 10-100 nM)
9 | C[C@@H]1Cc2c([nH]c3ccccc23)[C@@H](c2c(F)cc(-c3ncc(C(=O)N4CCC(N5Cc6cc7c(cc6C5)C(=O)N(C5CCC(=O)NC5=O)C7=O)CC4)cn3)cc2F)N1CC(F)F (stereo partly drawn) [Compound B92, 6-(1-(2-(4-((1R,3R)-2-(2,2-difluoroethyl)-3-methyl-2,3,4,9-tetrahydro-1H-pyrido[3,4-b]indol-1-yl)-3,5-difluorophenyl)pyrimidine-5-carbonyl)piperidin-4-yl)-2-(2,6-dioxopiperidin-3-yl)-6,7-dihydropyrrolo[3,4-f]isoindole-1,3(2H,5H)-dione] | A (“A”: <10 nM)
10 | C[C@@H]1Cc2c([nH]c3ccccc23)[C@@H](c2c(F)cc(-c3ccc(C(=O)N4CCC(N5Cc6cc7c(cc6C5)C(=O)N(C5CCC(=O)NC5=O)C7=O)CC4)cc3)cc2F)N1CC(F)F (stereo partly drawn) [Compound B93, 6-(1-(4′-((1R,3R)-2-(2,2-difluoroethyl)-3-methyl-2,3,4,9-tetrahydro-1H-pyrido[3,4-b]indol-1-yl)-3′,5′-difluoro-[1,1′-biphenyl]-4-carbonyl)piperidin-4-yl)-2-(2,6-dioxopiperidin-3-yl)-6,7-dihydropyrrolo[3,4-f]isoindole-1,3(2H,5H)-dione] | A (“A”: <10 nM)
11 | C[C@@H]1Cc2c([nH]c3ccccc23)[C@@H](c2c(F)cc(C3CCN(C(=O)C4CCC(N5Cc6cc7c(cc6C5)C(=O)N(C5CCC(=O)NC5=O)C7=O)CC4)CC3)cc2F)N1CC(F)F (stereo partly drawn) [Compound B94, 6-(4-(4-(4-((1R,3R)-2-(2,2-difluoroethyl)-3-methyl-2,3,4,9-tetrahydro-1H-pyrido[3,4-b]indol-1-yl)-3,5-difluorophenyl)piperidine-1-carbonyl)cyclohexyl)-2-(2,6-dioxopiperidin-3-yl)-6,7-dihydropyrrolo[3,4-f]isoindole-1,3(2H,5H)-dione] | B (“B”: 10-100 nM)
12 | C[C@@H]1Cc2c([nH]c3ccccc23)[C@@H](c2c(F)cc(C3CCN(C[C@H]4CC[C@H](N5Cc6cc7c(cc6C5)C(=O)N(C5CCC(=O)NC5=O)C7=O)CC4)CC3)cc2F)N1CC(F)F (stereo partly drawn) [Compound B95, 6-((1R,4r)-4-((4-(4-((1R,3R)-2-(2,2-difluoroethyl)-3-methyl-2,3,4,9-tetrahydro-1H-pyrido[3,4-b]indol-1-yl)-3,5-difluorophenyl)piperidin-1-yl)methyl)cyclohexyl)-2-(2,6-dioxopiperidin-3-yl)-6,7-dihydropyrrolo[3,4-f]isoindole-1,3(2H,5H)-dione] | C (“C”: >100 nM)
13 | C[C@@H]1Cc2c([nH]c3ccccc23)[C@@H](c2c(F)cc(C3CCN(C[C@H]4CC[C@H](N5Cc6cc7c(cc6C5)C(=O)N(C5CCC(=O)NC5=O)C7=O)CC4)CC3)cc2F)N1CC(F)F (stereo partly drawn) [Compound B96, 6-((1R,4r)-4-((4-(4-((1R,3R)-2-(2,2-difluoroethyl)-3-methyl-2,3,4,9-tetrahydro-1H-pyrido[3,4-b]indol-1-yl)-3,5-difluorophenyl)piperidin-1-yl)methyl)cyclohexyl)-2-(2,6-dioxopiperidin-3-yl)-6,7-dihydropyrrolo[3,4-f]isoindole-1,3(2H,5H)-dione] | C (“C”: >100 nM)
14 | C[C@@H]1Cc2c([nH]c3ccccc23)[C@@H](c2c(F)cc(C(=O)N3CCC4(CC3)CC(CN3Cc5cc6c(cc5C3)C(=O)N(C3CCC(=O)NC3=O)C6=O)C4)cc2F)N1CC(F)F (stereo partly drawn) [Compound B97, 6-((7-(4-((1R,3R)-2-(2,2-difluoroethyl)-3-methyl-2,3,4,9-tetrahydro-1H-pyrido[3,4-b]indol-1-yl)-3,5-difluorobenzoyl)-7-azaspiro[3.5]nonan-2-yl)methyl)-2-(2,6-dioxopiperidin-3-yl)-6,7-dihydropyrrolo[3,4-f]isoindole-1,3(2H,5H)-dione] | C (“C”: >100 nM)
15 | C[C@@H]1Cc2c([nH]c3ccccc23)[C@@H](c2c(F)cc(CN3CCC4(CC3)CC(CN3Cc5cc6c(cc5C3)C(=O)N(C3CCC(=O)NC3=O)C6=O)C4)cc2F)N1CC(F)F (stereo partly drawn) [Compound B98, 6-((7-(4-((1R,3R)-2-(2,2-difluoroethyl)-3-methyl-2,3,4,9-tetrahydro-1H-pyrido[3,4-b]indol-1-yl)-3,5-difluorobenzyl)-7-azaspiro[3.5]nonan-2-yl)methyl)-2-(2,6-dioxopiperidin-3-yl)-6,7-dihydropyrrolo[3,4-f]isoindole-1,3(2H,5H)-dione] | C (“C”: >100 nM)
16 | C[C@@H]1Cc2c([nH]c3ccccc23)[C@@H](c2c(F)cc(C(=O)N3CCC4(CCC(CN5Cc6cc7c(cc6C5)C(=O)N(C5CCC(=O)NC5=O)C7=O)CC4)CC3)cc2F)N1CC(F)F (stereo partly drawn) [Compound B99, 6-((3-(4-((1R,3R)-2-(2,2-difluoroethyl)-3-methyl-2,3,4,9-tetrahydro-1H-pyrido[3,4-b]indol-1-yl)-3,5-difluorobenzoyl)-3-azaspiro[5.5]undecan-9-yl)methyl)-2-(2,6-dioxopiperidin-3-yl)-6,7-dihydropyrrolo[3,4-f]isoindole-1,3(2H,5H)-dione] | C (“C”: >100 nM)
